Data as given in patent US7182963B2, “Cosmetic and dermopharmaceutical compositions for skin prone to acne” (priority 2001, dated 2007).

Experiments:
[1] = test system: Staphylococcus hominis; assay: Antibacterial effect, agar incorporation, strain B; format: cell-based; set-up: key to bacterial growth, strain B: ‘+’ = bacterial growth; ‘−’ = no bacterial growth; details: for bacterial growth, strain B: 24 h (same at 48 h), equivalent to 5% premix
Procedure: (§1) Test Principle and Implementation: 1 mL of the premix in example No. 1 or its constituents at concentrations equivalent to 5% of the premix were incorporated in molten agar medium (BioMérieux) plated in a Petri dish. […] The plates were then incubated at 37° C. for 24 and 48 hours and inspected visually. Five strains, Corynebacterium minutissimum, Propionibacterium acnes, Staphylococcus aureus, Staphylococcus hominis and Acinetobacterium calcoaceticus were studied.

[2] = test system: 5α-reductase; assay: Inhibition of 5α-reductase, HPLC determination of testosterone, in vitro; format: biochemical; details: for % inhibition: mean±SEM, 5 assays
Procedure: Principle and implementation of the test: the aim of this test was to confirm the previous result but using an HPLC analysis method. Unlike 5-DHT, testosterone absorbs light at the wavelength used (245 nm). The decrease in testosterone peak area (which was characterized under our operating conditions by a retention time of 26 minutes) reflects the reduction of the concentration of the compound in the study medium and thus reflects 5α-reductase activity.
The same type of protocol as in the previous example was used, but instead of determining the absorbances, the reaction media were analyzed by HPLC.

[3] = test system: interleukin 6 (IL-6) on normal human fibroblasts (HF); assay: Anti-inflammatory effect: IL-6 (ELISA) in normal human fibroblasts after UV-B irradiation; format: cell-based; details: for HF % change (IL-6 vs. tests without UV exposure): UV-B 50 mJ.cm^−2, 24 hours
Procedure: (§2) Principle and test implementation: it is possible to estimate a degree of inflammation by determining the quantity of mediators such as prostaglandins, leukotrienes or interleukins. In this example, we selected assay of interleukin 6 (IL-6) on normal human fibroblasts (HF) and keratinocytes (HK) in culture following exposure to UV-B irradiation. Broadly speaking, the cells were cultured in a conventional culture medium (DMEMc+10% FCS) for periods of 24 hours for HF and 1 week for HK. After elimination of the buffer and 2 successive washings with phosphate buffer solution, the cells were exposed to UV-B irradiation at a standardized energy level of 50 mJ.cm^−2. The buffer was then rapidly eliminated and replaced by the same culture medium as that used at the start of the experiment, but containing the test extracts at the prerequisite concentrations or DMSO for the control series. After 24 hours, the culture medium was harvested and IL-6 concentration determined using a standard ELISA method. An additional series was conducted using the same protocol but without UV-B irradiation in order to determine the baseline level and control the stability of the study system. All the assays were conducted in triplicate.

[4] = test system: Acinetobacterium calcoaceticus; assay: Antibacterial effect, agar incorporation, strain E; format: cell-based; set-up: key to bacterial growth, strain E: ‘+’ = bacterial growth; ‘−’ = no bacterial growth; details: for antimicrobial activity: A. calcoaceticus; for bacterial growth, strain E: 24 h (same at 48 h), equivalent to 5% premix
Procedure: as §1

[5] = test system: normal human keratinocytes (HK); assay: Antiproliferative effect on keratinocytes (DNA quantity, Hoechst 33258); format: cell-based; details: for % inhibition (quantity of DNA, number of cells): 1 week culture
Excerpt: Test principle and implementation: since the quantity of DNA is constant for each cell, the determination of the overall quantity of DNA is equivalent to measuring the number of cells used for the determination. This principle enables routine use of more refined but very cumbersome methodologies to be avoided. Various methods have been developed on the basis of this protocol, of which, in particular, that used herein. When bound to DNA with a constant and known stereochemistry, the fluorophore, Hoechst 33258, presents, first, increased fluorescence, but also an emission spectrum shift from 492 to 458 nm. By means of comparison with pre-established sets of standards, the concomitant monitoring of the above 2 parameters enables quantification of the quantity of DNA present in the cell samples studied. Broadly speaking, normal human keratinocytes (HK) are cultured in a classic culture medium (DMEMc+10% FCS) for 1 week, in the absence of the test product (control series in order to determine the baseline cell proliferation of the system studied) or in the presence of the test products alone or in combination. Fluorophore Hoechst 33258 was added at the end of the protocol before withdrawing cell aliquots for assay. The assays were conducted in triplicate as 3 mutually independent assays.

[6] = test system: 5α-reductase; assay: Inhibition of 5α-reductase, enzymatic assay (NADPH absorbance at 340 nm), in vitro; format: biochemical; details: for % inhibition: mean±SEM, 5 assays
Procedure: Principle and implementation of the test (adapted from Zy and Zu, 1998):
Testosterone is irreversibly metabolized by 5α-reductase to […] (5-DHT) in the presence of the cofactor NADPH. The reaction is monitored, at 37° C., by determining, using a spectrophotometer, the reduction in the absorbance of the reaction medium at 340 nm, due to the conversion of NADPH to NADP.
The test thus consists in mixing testosterone, NADPH and the test product or its vehicle alone (control reaction). After 3 minutes to allow the system to equilibrate, the baseline absorbance of the system is determined. Then the reaction is triggered by addition of the enzyme, 5α-reductase. After 10 minutes, a second determination of the absorbance, final absorbance, is conducted. The difference between the two measurements reflects the quantity of NADPH consumed. That quantity is proportional to the quantity of testosterone converted to 5-DHT.

[7] = test system: interleukin 6 (IL-6) on normal human keratinocytes (HK); assay: Anti-inflammatory effect: IL-6 (ELISA) in normal human keratinocytes after UV-B irradiation; format: cell-based; details: for HK % change (IL-6 vs. tests without UV exposure): UV-B 50 mJ.cm^−2, 24 hours
Procedure: as §2

[8] = test system: P. acnes; assay: Antibacterial effect, agar incorporation, strain D; format: cell-based, Propionibacterium acnes; set-up: key to bacterial growth, strain D: ‘+’ = bacterial growth; ‘−’ = no bacterial growth; details: for bacterial growth, strain D: 24 h (same at 48 h), equivalent to 5% premix
Procedure: as §1

[9] = test system: Corynebacterium minutissimum; assay: Antibacterial effect, agar incorporation, strain A; format: cell-based; set-up: key: ‘+’ = bacterial growth; ‘−’ = no bacterial growth; details: 24 h (same at 48 h), equivalent to 5% premix
Procedure: as §1

[10] = test system: Staphylococcus aureus; assay: Antibacterial effect, agar incorporation, strain C; format: cell-based; set-up: key: ‘+’ = bacterial growth; ‘−’ = no bacterial growth; details: 24 h (same at 48 h), equivalent to 5% premix
Procedure: as §1

[11] = [c] 0.01%, listed as nordihydroguaiaretic acid

Q: Which results are given for `CC(Cc1ccc(O)c(O)c1)C(C)Cc1ccc(O)c(O)c1` (stereo not drawn) [NDGA, nordihydroguaiaretic acid]?
A: antimicrobial activity ([1]; S. hominis): selective antimicrobial activity; activity in the test [2]: no activity; % inhibition ([2]; [c] 0.01%): 1.2 ± 0.4%; % inhibition ([2]; [c] 0.04%): 1.0 ± 0.9%; % inhibition ([2]; [c] 0.1%): 0.9 ± 0.7%; inhibition vs. irradiated control (HF) ([3]; 0.01%): 19%; HF % change (IL-6 vs. tests without UV exposure) ([3]; [c] 0.01%): +356 ± 18%; HF % change (IL-6 vs. tests without UV exposure) [3, 11]: +356%; HF % change (IL-6 vs. tests without UV exposure) ([3]; [c] 0.04%): +155 ± 9%; HF % change (IL-6 vs. tests without UV exposure) ([3]; [c] 0.1%): +87 ± 7%; antimicrobial activity [4]: selective antimicrobial activity; % inhibition (quantity of DNA, number of cells) ([5]; [c] 0.04%): 22.3 ± 1.9%; % inhibition (quantity of DNA, number of cells) ([5]; [c] 0.1%): 29.9 ± 1.7%; activity in the test [6]: no activity; % inhibition ([6]; [c] 0.01%): 2.1 ± 1.6%; % inhibition ([6]; [c] 0.04%): 3.7 ± 2.9%; % inhibition ([6]; [c] 0.1%): 3.0 ± 1.9%; inhibition vs. irradiated control (HK) ([7]; 0.01%): 14%; HK % change (IL-6 vs. tests without UV exposure) ([7]; [c] 0.01%): +388 ± 10%; HK % change (IL-6 vs. tests without UV exposure) [7, 11]: +388%; HK % change (IL-6 vs. tests without UV exposure) ([7]; [c] 0.04%): +201 ± 10%; HK % change (IL-6 vs. tests without UV exposure) ([7]; [c] 0.1%): +91 ± 14%

Q: `CC1(C)CC[C@]2(C(=O)O)CC[C@]3(C)C(=CC[C@@H]4[C@@]5(C)CC[C@H](O)C(C)(C)[C@@H]5CC[C@]43C)[C@@H]2C1` [Oleanolic acid, oleanolic acid] was tested. Which “antimicrobial activity” value ([8]; P. acnes) did it give?
A: selective antimicrobial activity

Q: And the “% inhibition” value ([2]; [c] 0.01%)?
A: 10.9 ± 1.4%

Q: What about the “% inhibition” value ([2]; [c] 0.03%) of the same compound?
A: 25.6 ± 2.0%

Q: And the “% inhibition” value ([2]; [c] 0.1%)?
A: 48%

Q: What about the “% inhibition” value ([2]; [c] 0.1%, listed as Oleanolic acid (obtained from olive tree leaves)) of the same compound?
A: 47.7 ± 3.8%

Q: What about the “activity in the test, HF” value [3] of the same compound?
A: devoid of activity

Q: What about the “HF % change (IL-6 vs. tests without UV exposure)” value ([3]; [c] 0.01%) of the same compound?
A: +455 ± 14%

Q: And the “HF % change (IL-6 vs. tests without UV exposure)” value ([3]; [c] 0.03%)?
A: +437 ± 12%

Q: And the “HF % change (IL-6 vs. tests without UV exposure)” value ([3]; [c] 0.1%)?
A: +441 ± 18%

Q: What about the “antimicrobial activity” value [4] of the same compound?
A: selective antimicrobial activity

Q: And the “activity in the test” value [5]?
A: devoid of activity

Q: What about the “% inhibition (quantity of DNA, number of cells)” value ([5]; [c] 0.01%) of the same compound?
A: 0.9 ± 1.0%

Q: What about the “% inhibition (quantity of DNA, number of cells)” value ([5]; [c] 0.03%) of the same compound?
A: 1.1 ± 1.6%

Q: What about the “% inhibition (quantity of DNA, number of cells)” value ([5]; [c] 0.1%) of the same compound?
A: 0.7 ± 0.7%

Q: And the “% inhibition” value ([6]; [c] 0.01%)?
A: 16.7 ± 1.1%

Q: And the “% inhibition” value ([6]; [c] 0.03%)?
A: 31.7 ± 2.9%

Q: And the “% inhibition” value ([6]; [c] 0.1%)?
A: 56.3 ± 2.6%

Q: What about the “% inhibition” value ([6]; [c] 0.1%, listed as oleanolic acid) of the same compound?
A: 56%

Q: What about the “activity in the test, HK” value [7] of the same compound?
A: devoid of activity

Q: What about the “HK % change (IL-6 vs. tests without UV exposure)” value ([7]; [c] 0.01%) of the same compound?
A: +461 ± 16%

Q: And the “HK % change (IL-6 vs. tests without UV exposure)” value ([7]; [c] 0.03%)?
A: +444 ± 14%

Q: And the “HK % change (IL-6 vs. tests without UV exposure)” value ([7]; [c] 0.1%)?
A: +450 ± 14%

Q: What does the source list for `Oc1cc(Cl)ccc1Oc1ccc(Cl)cc1Cl` [Trichlosan]?
A: bacterial growth, strain B ([1]; 10^4 bacteria/mL): −; bacterial growth, strain B ([1]; 10^5 bacteria/mL): −; bacterial growth, strain D ([8]; 10^4 bacteria/mL): −; bacterial growth, strain D ([8]; 10^5 bacteria/mL): −; bacterial growth, strain E ([4]; 10^4 bacteria/mL): −; bacterial growth, strain E ([4]; 10^5 bacteria/mL): −; bacterial growth, strain A ([9]; 10^4 bacteria/mL): −; bacterial growth, strain A ([9]; 10^5 bacteria/mL): −; bacterial growth, strain C ([10]; 10^4 bacteria/mL): −; bacterial growth, strain C ([10]; 10^5 bacteria/mL): −
